Assay results from patent US11731933B2, “Device and method for the desalination of water by means of thermal deionisation and liquid-phase ion extraction liquid” (ADIONICS, priority 2015, dated 2023).
Several values for one entry are separate records, joined by “and”; a condition that tells them apart may be missing. Identical values can stand only once.

Assays:
[1] = NaCl extraction from 0.4M NaCl water by ASM + Calix[4]Est in chloroform (Example 11); conditions: for NaCl - 20° C. % ext (average) / NaCl - 60° C. % ext (average): average molar extraction; for Mol % Cl- extracted from the water to be treated / Mol % Na+ extracted from the water to be treated: CEM 0.3 Mol/L, ASM 0.3 Mol/L in CHCl3, 0.4 M NaCl; for Δ % ext: difference 20° C. minus 60° C.
Procedure: The extraction composition is obtained by solubilizing an amount of 4-tert-butyl Calix[4]arene tetraethyl Ester (CAS No. 97600-39-0) and ASM in chloroform CHCl3 to obtain a final concentration after solubilization of the CEM and ASM of 0.3 mol/L for Calix[4]Est and of 0.3 mol/L for ASM, respectively. These sealed formulations were then orbitally stirred at 500 rpm for 2 hours after adding an equivalent volume of twice distilled water to allow water saturation of the entire formulation and control of pH output (pH=7). The extraction composition is then put to stand to settle. All the compositions tested are stable and rapidly decanted (a few minutes at the most).
A 0.4 mol/L NaCl aqueous solution was prepared from twice distilled water.
The organic extraction composition is then slightly heated to promote solubilization of the compounds by hot air gun (temperature of about 50 to 60° C.) for a few seconds (10 to 30 seconds) until a clear solution is obtained.
3 mL of the organic extraction composition is then removed from the lower phase of the settled two-phase mixture and transferred to a vial containing 3 mL of salt water at 0.4 M NaCl and then the flask is sealed and orbitally stirred (at 500 revolutions per minute), for 2 hours at room temperature (RT), that is to say between 20 and 25° C. In the case of extraction at 60° C., magnetic stirring (at 500 revolutions per minute), for 2 hours, is carried out with indirect heating in a metal mold on a heating plate. It is verified that droplets of the order of 1-2 mm are present during these agitations in order to be certain to achieve equilibrium in the NaCl distribution between the two liquid phases at the end of stirring. The appearance of the organic and aqueous phases is clear and colorless or slightly cloudy.
After stirring for 2 hours, stirring is stopped and the solution is put to stand to settle within 10 minutes, at least until the two phases have completely separated off, at the temperature of the test. The upper aqueous phase is then removed and then stirred and diluted for analysis of its salinity by a Metrohm Ion Chromatograph incorporating a suitable cation analysis column and a suitable anion analysis column. Similarly, the initial aqueous solution of NaCl at 0.4M is also analyzed by this ion chromatograph to determine its relative molar concentration in sodium and in chlorides. AN extractions and analyzes were duplicated.

[2] = NaCl extraction from 0.3M NaCl water by ASMC7 at four concentrations + Calix[4]Est in chloroform (Example 12)
Procedure: Four extraction compositions were obtained by solubilizing a constant amount of 4-tert-butylCalix[4]arene tetraethylEster (CAS No. 97600-39-0) and four increasing amounts of ASMC7 in chloroform CHCl3 to obtain four final concentrations after solubilization of CEM and ASM, from 0.34 to 0.36 mol/L for Calix[4]Est and 0.36 mol/L, 0.71 mol/L, 1.09 mol/L and 1.49 mol/L for ASMC7, respectively. These four sealed formulations were then orbitally stirred at 500 rpm for 2 hours after adding an equivalent volume of twice distilled water to allow water saturation of the entire formulation and control of pH at the output (pH=7). The extraction composition is then put to stand for settling. All the compositions tested are stable and rapidly decanted (a few minutes at the most).
An 0.3 mol/L NaCl aqueous solution was prepared from twice distilled water.
3 ml of each organic extraction composition are then removed in the lower phase of the settled two-phase mixture and transferred to four vials, each containing 3 ml of the salt water at 0.3M NaCl, then the flasks are sealed and orbitally stirred (at 500 revolutions per minute), for 2 hours at room temperature (RT), that is to say between 20 and 25° C. In the case of extraction at 60° C., a magnetic stirring (at 500 revolutions per minute), for 2 hours, is carried out with indirect heating in a metal mold on a heating plate. It is verified that droplets of the order of 1-2 mm are present during these agitations in order to be certain to reach equilibrium in the NaCl distribution between the two liquid phases at the end of stirring. The appearance of the organic and aqueous phases is clear and colorless for these 4 formulations tested.
After stirring for 2 hours, stirring is stopped and the solution is put to stand for settling within 10 minutes, at least until the two phases have completely separated off, at the test temperature. Then, the four upper aqueous phases are separately taken and then stirred and diluted for analysis of their salinity by a Metrohm Ion Chromatograph incorporating a suitable cation analysis column and a suitable anion analysis column. Similarly, the initial aqueous solution of 0.3M NaCl is also analyzed by this ion chromatograph to determine its relative molar concentration of sodium and chlorides. All extractions and analyzes were duplicated.

[3] = NaCl extraction from 0.2M NaCl water by ASM/CEM composition, ion chromatography of treated water; conditions: ASM: 3TFMPhOH; CEM 0.2M; NaCl 0.2M water
Procedure: To 3 mL of 3-(trifluoromethyl)phenol, was added 217 mg of Dibenzo-18-crown-6 in order to obtain a formulation with 0.2 mole/L of DB18C6. This sealed formulation was then orbitally stirred at 500 rpm overnight after 1 mL of distilled water was added twice to allow water saturation of the whole.
The next morning, an aqueous 0.2 mol/L NaCl solution was prepared from twice distilled water, while the formulation that was stirred overnight was allowed to stand for decantation. A clear decantation of the two colorless phases is obtained in a few minutes. 3 mL of the organic extraction solution is then removed and transferred to a flask containing 3 mL of this salt water containing 0.2 M NaCl, then the flask is sealed and orbitally stirred (usually 500 rpm), for 3 hours and at room temperature. It is verified that droplets of the order of 1-2 mm are present in quantity at the selected stirring speed (400 to 900 rpm).
After stirring for 2 hours, stirring is stopped and the whole is left to stand for decantation for at least 10 minutes until the two phases are completely separated. The upper aqueous phase is then removed and then stirred and diluted for analysis of its salinity by a Metrohm Ion Chromatography Incorporating a suitable cation analysis column and a suitable anion analysis column. Similarly, the initial aqueous solution of 0.2M NaCl is also analyzed by this ion chromatography equipment to determine its relative concentration of sodium and chlorides. […]

[4] = methanol, published complexing constants; cited from earlier work
[5] = methanol; cited from earlier work
[6] = 60° C., CEM 0.341, ASMC7 0.708 Mol/L, ratio 2.08
[7] = 60° C., CEM 0.345, ASMC7 0.358 Mol/L, ratio 1.04
[8] = 60° C., CEM 0.349, ASMC7 1.088 Mol/L, ratio 3.12
[9] = 60° C., CEM 0.358, ASMC7 1.488 Mol/L, ratio 4.16
[10] = RT, CEM 0.341, ASMC7 0.708 Mol/L, ratio 2.08
[11] = RT, CEM 0.345, ASMC7 0.358 Mol/L, ratio 1.04
[12] = RT, CEM 0.349, ASMC7 1.088 Mol/L, ratio 3.12
[13] = RT, CEM 0.358, ASMC7 1.488 Mol/L, ratio 4.16

CCCCCCCCCCCC(=O)Nc1cc(C(F)(F)F)cc(C(F)(F)F)c1 [ASMC11, N-[3,5-bis(trifluoromethyl)phenyl]dodecanamide]
NaCl - 20° C. % ext (average) [1]: 23.8%
Mol % Cl- extracted from the water to be treated ([1]; 60° C.): 4.9% and 7.7%
Mol % Na+ extracted from the water to be treated ([1]; 60° C.): 3.4% and 7.1%
NaCl - 60° C. % ext (average) ([1]; 60° C.): 5.8%
Mol % Cl- extracted from the water to be treated ([1]; RT): 24.5% and 25.3%
Mol % Na+ extracted from the water to be treated ([1]; RT): 22.4% and 23.1%
Δ % ext [1]: 18.0%

CCCCCCCCCCCCCC(=O)Nc1cc(C(F)(F)F)cc(C(F)(F)F)c1 [ASMC13, N-[3,5-bis(trifluoromethyl)phenyl]tetradecanamide]
NaCl - 20° C. % ext (average) [1]: 25.0%
Mol % Cl- extracted from the water to be treated ([1]; 60° C.): 6.9% and 9.4%
Mol % Na+ extracted from the water to be treated ([1]; 60° C.): 5.9% and 9.0%
NaCl - 60° C. % ext (average) ([1]; 60° C.): 7.8%
Mol % Cl- extracted from the water to be treated ([1]; RT): 26.2% and 27.4%
Mol % Na+ extracted from the water to be treated ([1]; RT): 22.7% and 23.8%
Δ % ext [1]: 17.2%

CCCCCCCC(=O)Nc1cc(C(F)(F)F)cc(C(F)(F)F)c1 [ASMC7, N-[3,5-bis(trifluoromethyl)phenyl]octanamide]
NaCl - 20° C. % ext (average) [1]: 24.6%
Mol % Cl- extracted from the water to be treated ([1]; 60° C.): 7.6% and 7.3%
Mol % Na+ extracted from the water to be treated ([1]; 60° C.): 5.5% and 5.4%
NaCl - 60° C. % ext (average) ([1]; 60° C.): 6.3%
Mol % Cl- extracted from the water to be treated ([1]; RT): 26.3% and 25.9%
Mol % Na+ extracted from the water to be treated ([1]; RT): 23.6% and 22.8%
Δ % ext [1]: 18.4%
Mol % of Cl− extracted from water to be treated [2, 6]: 26.6% and 27.4%
Mol % of Na+ extracted from water to be treated [2, 6]: 28.1% and 28.2%
Mol % of Cl− extracted from water to be treated [2, 7]: 13.0% and 14.1%
Mol % of Na+ extracted from water to be treated [2, 7]: 9.9% and 13.1%
Mol % of Cl− extracted from water to be treated [2, 8]: 31.0% and 30.4%
Mol % of Na+ extracted from water to be treated [2, 8]: 37.7% and 39.5%
Mol % of Cl− extracted from water to be treated [2, 9]: 45.6% and 39.9%
Mol % of Na+ extracted from water to be treated [2, 9]: 48.4% and 46.9%
Mol % of Cl− extracted from water to be treated [2, 10]: 44.4%
Mol % of Na+ extracted from water to be treated [2, 10]: 44.2% and 45.1%
Mol % of Cl− extracted from water to be treated [2, 11]: 27.9% and 27.2%
Mol % of Na+ extracted from water to be treated [2, 11]: 27.9% and 21.7%
Mol % of Cl− extracted from water to be treated [2, 12]: 51.2% and 52.9%
Mol % of Na+ extracted from water to be treated [2, 12]: 60.0% and 59.8%
Mol % of Cl− extracted from water to be treated [2, 13]: 64.6% and 65.6%
Mol % of Na+ extracted from water to be treated [2, 13]: 71.2% and 65.0%
Δ % ext ([2]; [ASMC7]/[CEM] 1.04): 13.6%
NaCl - 20° C. % ext (average) ([2]; [ASMC7]/[CEM] 1.04): 26.2%
NaCl - 60° C. % ext (average) ([2]; [ASMC7]/[CEM] 1.04, 60° C.): 12.5%
Δ % ext ([2]; [ASMC7]/[CEM] 2.08): 16.9%
NaCl - 20° C. % ext (average) ([2]; [ASMC7]/[CEM] 2.08): 44.5%
NaCl - 60° C. % ext (average) ([2]; [ASMC7]/[CEM] 2.08, 60° C.): 27.6%
Δ % ext ([2]; [ASMC7]/[CEM] 3.12): 21.3%
NaCl - 20° C. % ext (average) ([2]; [ASMC7]/[CEM] 3.12): 55.9%
NaCl - 60° C. % ext (average) ([2]; [ASMC7]/[CEM] 3.12, 60° C.): 34.5%
Δ % ext ([2]; [ASMC7]/[CEM] 4.16): 21.4%
NaCl - 20° C. % ext (average) ([2]; [ASMC7]/[CEM] 4.16): 66.6%
NaCl - 60° C. % ext (average) ([2]; [ASMC7]/[CEM] 4.16, 60° C.): 45.1%

CCCCCCCCCC(=O)Nc1cc(C(F)(F)F)cc(C(F)(F)F)c1 [ASMC9, N-[3,5-bis(trifluoromethyl)phenyl]decanamide]
NaCl - 20° C. % ext (average) [1]: 24.4%
Mol % Cl- extracted from the water to be treated ([1]; 60° C.): 6.9% and 8.0%
Mol % Na+ extracted from the water to be treated ([1]; 60° C.): 5.4% and 5.7%
NaCl - 60° C. % ext (average) ([1]; 60° C.): 6.5%
Mol % Cl- extracted from the water to be treated ([1]; RT): 27.1% and 23.8%
Mol % Na+ extracted from the water to be treated ([1]; RT): 25.2% and 21.7%
Δ % ext [1]: 17.9%

c1ccc2c(c1)OCCOCCOCCOc1ccccc1OCCOCCO2 [DB21C7, 6,7,9,10,12,13,20,21,23,24-Decahydrodibenzo[b,k][1,4,7,10,13,16,19] heptaoxacyclohenicosine]
Extraction rate at 23° C., Cl− [3]: 20.7%
Extraction rate at 23° C., Na+ [3]: 9.4%
Extraction rate at 23° C., mean NaCl [3]: 15.2%
Log K(Na+, MeOH, 25° C.) [4]: 2.4
Log K(K+, MeOH, 25° C.) [5]: 4.19
